The assay concerns PDE 4. As to the kind of experiment: Inhibition of PDE 4 activity (method of Bauer and Schwabe, adapted to microtiter plates). Format: biochemical. To be noted: Table A.

For `CCOc1cc2c(cc1OC)C(c1ccc(C(=O)Nc3cccnc3)cc1)=NC1CCCCC21` (mixture of isomers) [Compound 6, (+/-)-cis-9-Ethoxy-8-methoxy-6-(4-pyrid-3-ylamidophenyl)-1,2,3,4,4a,10b-hexahydrophenanthridine], the “inhibitory concentration as -log IC50 (mol/l), Inhibition of PDE 4 activity” value (from here on “inhibitory concentration as -log IC50”) is 8.66.

As for `CCOc1cc2c(cc1OC)C(c1ccc(S(=O)(=O)Nc3ccc(C)cc3)cc1)=N[C@H]1CCCC[C@@H]21` (racemic) [Compound 3, (+/-)-cis-9-Ethoxy-8-methoxy-6-(4-p-tolylsulfamoylphenyl)-1,2,3,4,4a,10b-hexahydrophenanthridine], the “inhibitory concentration as -log IC50” value is 9.24.

Turning to `CCOc1cc2c(cc1OC)C(c1ccc(S(N)(=O)=O)cc1)=N[C@H]1CCCC[C@@H]21` (racemic) [Compound 1, (+-)-cis-9-Ethoxy-8-methoxy-6-(4-sulfamoylphenyl)-1,2,3,4,4a,10b-hexahydrophenanthridine], the “inhibitory concentration as -log IC50” value turned out to be 8.55.

As for `CCCN(CCC)S(=O)(=O)c1ccc(C2=N[C@H]3CCCC[C@H]3c3cc(OCC)c(OC)cc32)cc1` (racemic) [Compound 2, (+/-)-cis-9-Ethoxy-8-methoxy-6-(4-dipropylsulfamoylphenyl)-1,2,3,4,4a,10b-hexahydrophenanthridine], the “inhibitory concentration as -log IC50” value was found to be 9.25.

Regarding `COc1cc2c(cc1OC)[C@@H]1CCCC[C@@H]1N=C2c1ccc(S(=O)(=O)Nc2ccc(C)cc2)cc1` (single isomer, unassigned) [Compound 5, (-)-cis-8,9-Dimethoxy-6-(4-p-tolylsulfamoylphenyl)-1,2,3,4,4a,10b-hexahydrophenanthridine], the “inhibitory concentration as -log IC50” value is listed as 8.30.
